In assay [1] the target is Recombinant human JAK2 kinase domain protein (Residues 812-1132) (Homo sapiens, UniProt O60674). Nature of the assay: JAK2 biochemical assay (LabChip mobility shift, Ki). Particulars: Biochem JAK2 Ki.
Method: The in vitro biochemical assays quantify JAK-catalyzed phosphorylation of a synthetic peptide, as detected using a LabChip® EZ Reader II microfluidic mobility shift instrument (PerkinElmer; Waltham, MA). […] Y-1B is fluorescently labeled on the N-terminus with 5-FAM (5-carboxyfluorescein) and contains a single tyrosine residue (Y) that can be phosphorylated by JAK activity. The substrate peptide stock is prepared in DMSO at 5 mM. […] In each titration experiment, test compound was tested in duplicate at each of the twelve concentrations. Blank reactions contained ATP, peptide, and DMSO, but no JAK or test compound, whereas uninhibited control reactions contained ATP, peptide, JAK, and DMSO, but no test compound.
Peptide plus ATP mixture (24 μL) was added to 1 μL of test compound in DMSO (or DMSO alone). The reactions were initiated by adding 25 μL of JAK enzyme to the inhibitor/peptide/ATP mixture before thoroughly mixing the resultant solution. Reactions were incubated at room temperature (22° C.-23° C.) in a final volume of 50 μL per well in 384-well plates. After a 30-minute incubation, the reactions were stopped by adding 25 μL of 150 mM ethylenediaminetetraacetic acid in 100 mM HEPES buffer (pH 7.2) containing 0.015% Brij 35 to each well.
In each reaction, the residual Y-1B substrate and the phospho-peptide product generated were separated using the EZ Reader II instrument. Electrophoretic separation of molecules of product from molecules of substrate was achieved using downstream and upstream voltages of −500 and −2600 V, respectively, at an operating pressure of −1.3 psi.
The extent (or percent) of conversion of substrate to product was calculated from the corresponding peak heights in the electropherogram using HTS Well Analyzer software, Version 5.2 (PerkinElmer), and the following equation (Equation 1): conversion=[P÷(S+P)]×100 Equation 1% where S and P represent the peak heights of the substrate and product, respectively. After any baseline signal from blank wells containing no JAK was subtracted from the signal of all test wells, the % conversion data were converted to fractional activity as shown in Equation 2, where vi and vo are the % conversion in the presence and absence of test compound, respectively.
Assay [2] deals with T1, recombinant human JAK1 kinase domain protein (Residues 854-1154) (Homo sapiens, UniProt P23458).
T1 construct: human JAK1 kinase domain protein (Residues 854-1154); purchased Proteros Biostructures GmbH (Martinsried, Germany); host or cells: insect cells
Kind of assay: JAK1 biochemical assay (LabChip mobility shift, Ki). Particulars: read-out: Biochem JAK1 Ki.

The test system of assay [3] is IL-13-stimulated STAT6 phosphorylation in human lung bronchial epithelial BEAS-2B cell line. Nature of the assay: P-STAT6 BEAS-2B + IL-13 cell assay. It counts as cell-based. As to conditions: BEAS2B cells, IL13 stimulation, read-out: Cellular JAK1 PSTAT6 BEAS2B + IL13. The method in brief:
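BEAS-2B cells grown 48 h at 37 °C, pre-treated 1 h with compound (10-point 1:2 dilution curve), then stimulated 15 min with human recombinant IL-13 (250 ng/mL stock). Lysate P-STAT6 (Tyr641) read by MSD sandwich ELISA with total-STAT6 capture; IC50 from four-parameter logistic fit of control-normalised data.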

As usually defined, the Ki is the equilibrium dissociation constant of an inhibitor or competing ligand from its target.

Each structure is given as a SMILES string. Like-named read-outs stand apart in the source and are kept apart here.

Chain of Recombinant human JAK2 kinase domain protein (Residues 812-1132) (O60674 812-1132): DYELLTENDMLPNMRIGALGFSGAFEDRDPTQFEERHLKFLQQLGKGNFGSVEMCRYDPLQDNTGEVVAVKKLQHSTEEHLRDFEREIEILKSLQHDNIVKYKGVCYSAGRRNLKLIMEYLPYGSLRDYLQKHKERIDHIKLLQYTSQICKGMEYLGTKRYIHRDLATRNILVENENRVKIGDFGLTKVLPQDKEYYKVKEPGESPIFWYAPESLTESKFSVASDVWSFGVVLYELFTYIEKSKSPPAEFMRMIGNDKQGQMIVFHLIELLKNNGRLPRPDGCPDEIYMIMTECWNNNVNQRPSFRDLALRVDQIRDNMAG
T1 sequence (P23458 854-1154): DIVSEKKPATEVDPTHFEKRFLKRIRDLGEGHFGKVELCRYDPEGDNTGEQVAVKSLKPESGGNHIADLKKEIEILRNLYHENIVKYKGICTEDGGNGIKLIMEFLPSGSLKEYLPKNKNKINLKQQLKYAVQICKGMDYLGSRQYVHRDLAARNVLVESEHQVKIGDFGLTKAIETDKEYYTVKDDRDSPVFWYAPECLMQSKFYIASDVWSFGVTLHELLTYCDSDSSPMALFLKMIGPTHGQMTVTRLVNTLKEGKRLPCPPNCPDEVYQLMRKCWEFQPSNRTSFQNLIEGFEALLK

Consider `Cc1cc(Oc2ccc(OC(F)F)c(-c3nn(C)cc3NC(=O)c3cnn4cccnc34)c2)cc(C2(O)CNC2)c1` [Example 101, N-[3-[2-(difluoromethoxy)-5-[3-(3-hydroxyazetidin-3-yl)-5-methyl-phenoxy]phenyl]-1-methyl-pyrazol-4-yl]pyrazolo[1,5-a]pyrimidine-3-carboxamide], for which the results for the Ki in assay [1] and in assay [2] were 0.23 nM and 0.2 nM, respectively. In assay [3] (Homo sapiens, BEAS-2B), the IC50 came out at 180 nM.
The like results for `CN(C)C(=O)c1ccc(Oc2ccc(OC(F)F)c(-c3nn(C)cc3NC(=O)c3cnn4cccnc34)c2)cc1` [Example 88, N-[3-[2-(difluoromethoxy)-5-[4-(dimethylcarbamoyl)phenoxy]phenyl]-1-methyl-pyrazol-4-yl]pyrazolo[1,5-a]pyrimidine-3-carboxamide] were, in that order, 0.24 nM, 0.31 nM and 15 nM.
Regarding `N#CCc1cccc(Oc2ccc(OC(F)F)c(-c3n[nH]cc3NC(=O)c3cnn4cccnc34)c2)c1` [Example 12, N-[3-[5-[3-(cyanomethyl)phenoxy]-2-(difluoromethoxy)phenyl]-1H-pyrazol-4-yl]pyrazolo[1,5-a]pyrimidine-3-carboxamide], the inhibition constant (Ki) in assay [1] and in assay [2] was 0.21 nM throughout. Also, the IC50 in assay [3] (Homo sapiens, BEAS-2B) came out at 18 nM.
For the compound `Cn1cc(NC(=O)c2cnn3cccnc23)c(-c2cc(Oc3cnn(CC4COC4)c3)ccc2OC(F)F)n1` [Example 125, N-[3-[2-(difluoromethoxy)-5-[1-(oxetan-3-ylmethyl)pyrazol-4-yl]oxy-phenyl]-1-methyl-pyrazol-4-yl]pyrazolo[1,5-a]pyrimidine-3-carboxamide], the Ki in assay [1] came out at 0.38 nM; in assay [2], 0.82 nM. Besides, the IC50 in assay [3] (Homo sapiens, BEAS-2B) turned out to be 87 nM.
Regarding `Cn1cc(NC(=O)c2cnn3cccnc23)c(-c2cc(Oc3ccc(F)c(C4(O)CNC4)c3)ccc2OC(F)F)n1` [Example 103, N-[3-[2-(difluoromethoxy)-5-[4-fluoro-3-(3-hydroxyazetidin-3-yl)phenoxy]phenyl]-1-methyl-pyrazol-4-yl]pyrazolo[1,5-a]pyrimidine-3-carboxamide], the values for the Ki in assay [1] and in assay [2] were 0.54 nM and 0.48 nM, respectively. The IC50 in assay [3] (Homo sapiens, BEAS-2B) came to 260 nM.
The like results for `Cn1cc(NC(=O)c2cnn3cccnc23)c(-c2cc(Oc3ccc4c(c3)CN(C3COC3)CC4)ccc2OC(F)F)n1` [Example 69, N-[3-[2-(difluoromethoxy)-5-[[2-(oxetan-3-yl)-3,4-dihydro-1H-isoquinolin-7-yl]oxy]phenyl]-1-methyl-pyrazol-4-yl]pyrazolo[1,5-a]pyrimidine-3-carboxamide] were, in that order, 0.53 nM, 1.3 nM and 37 nM.
The like results for `Cn1cc(NC(=O)c2cnn3cccnc23)c(-c2cc(Oc3ccc(C4(CC#N)CNC4)cc3)ccc2OC(F)F)n1` [Example 148, N-[3-[5-[4-[3-(cyanomethyl)azetidin-3-yl]phenoxy]-2-(difluoromethoxy)phenyl]-1-methyl-pyrazol-4-yl]pyrazolo[1,5-a]pyrimidine-3-carboxamide] were, in that order, 1.9 nM, 3.6 nM and 210 nM.
Consider `Cn1cc(NC(=O)c2cnn3cccnc23)c(-c2cc(Oc3ccc(C4(CC#N)COC4)cc3)ccc2OC(F)F)n1` [Example 147], for which the values for the Ki in assay [1] and in assay [2] were 0.22 nM and 0.28 nM, respectively. In assay [3] (Homo sapiens, BEAS-2B), the IC50 was 19 nM.
The like results for `CCn1cc(NC(=O)c2cnn3cccnc23)c(-c2cc(Oc3cccc(C4(O)CN(C)C4)c3)ccc2OC(F)F)n1` [Example 108, N-[3-[2-(difluoromethoxy)-5-[3-(3-hydroxy-l-methyl-azetidin-3-yl)phenoxy]phenyl]-1-ethyl-pyrazol-4-yl]pyrazolo[1,5-a]pyrimidine-3-carboxamide] were, in that order, 0.72 nM, 0.69 nM and 60 nM.
`Cn1cc(NC(=O)c2cnn3cccnc23)c(-c2cc(Oc3ccc4c(c3)CN(CCO)CC4)ccc2OC(F)F)n1` [Example 76, N-[3-[2-(difluoromethoxy)-5-[[2-(2-hydroxyethyl)-3,4-dihydro-1H-isoquinolin-7-yl]oxy]phenyl]-1-methyl-pyrazol-4-yl]pyrazolo[1,5-a]pyrimidine-3-carboxamide]: the Ki in assay [1] worked out at 0.27 nM; in assay [2], 0.4 nM. For the same compound, the IC50 in assay [3] (Homo sapiens, BEAS-2B) was determined as 12 nM.
For `Cn1cc(NC(=O)c2cnn3cccnc23)c(-c2cc(Oc3cccc(CN4CCO[C@@H](CO)C4)c3)ccc2OC(F)F)n1` (stereo in doubt) [Example 75, N-[3-[2-(difluoromethoxy)-5-[3-[[rac-(2S)-2-(hydroxymethyl)morpholin-4-yl]methyl]phenoxy]phenyl]-1-methyl-pyrazol-4-yl]pyrazolo[1,5-a]pyrimidine-3-carboxamide] the same measures were 0.89 nM, 0.84 nM and 96 nM.
On to `CN1CC(CC#N)(c2ccc(Oc3ccc(OC(F)F)c(-c4nn(C)cc4NC(=O)c4cnn5cccnc45)c3)cc2)C1` [Example 145, N-[3-[5-[4-[3-(cyanomethyl)-1-methyl-azetidin-3-yl]phenoxy]-2-(difluoromethoxy)phenyl]-1-methyl-pyrazol-4-yl]pyrazolo[1,5-a]pyrimidine-3-carboxamide], for which the values for the Ki in assay [1] and in assay [2] were 3.1 nM and 5.5 nM, respectively. The IC50 in assay [3] (Homo sapiens, BEAS-2B) amounted to 160 nM.
Regarding `Cn1cc(NC(=O)c2cnn3cccnc23)c(-c2cc(Oc3ccc(CN4CCC(CO)C4)cc3)ccc2OC(F)F)n1` (racemic) [Example 170, N-[3-[2-(difluoromethoxy)-5-[4-[[rac-(3S)-3-(hydroxymethyl)pyrrolidin-1-yl]methyl]phenoxy]phenyl]-1-methyl-pyrazol-4-yl]pyrazolo[1,5-a]pyrimidine-3-carboxamide], the Ki in assay [1] was found to be 1.9 nM; in assay [2] it was 4.1 nM. Further, the IC50 in assay [3] (Homo sapiens, BEAS-2B) was determined as 76 nM.
For `NCc1ccc(Oc2ccc(OC(F)F)c(-c3n[nH]cc3NC(=O)c3cnn4cccnc34)c2)cc1` [Example 3, N-[3-[5-[4-(aminomethyl)phenoxy]-2-(difluoromethoxy)phenyl]-1H-pyrazol-4-yl]pyrazolo[1,5-a]pyrimidine-3-carboxamide] the same measures were 0.89 nM, 3.3 nM and 15 nM.
For `CCn1cc(NC(=O)c2cnn3cccnc23)c(-c2cc(Oc3cnn(CC4(O)CN(C)C4)c3)ccc2OC(F)F)n1` [Example 208, N-[3-[2-(difluoromethoxy)-5-[1-[(3-hydroxy-1-methyl-azetidin-3-yl)methyl]pyrazol-4-yl]oxy-phenyl]-1-ethyl-pyrazol-4-yl]pyrazolo[1,5-a]pyrimidine-3-carboxamide] the same measures were 1.2 nM, 1.2 nM and 72 nM.
`CN(C)C(=O)c1ccc(Oc2ccc(OC(F)F)c(-c3n[nH]cc3NC(=O)c3cnn4cccnc34)c2)cc1` [Example 130, N-[3-[2-(difluoromethoxy)-5-[4-(dimethylcarbamoyl)phenoxy]phenyl]-1-1H-pyrazol-4-yl]pyrazolo[1,5-a]pyrimidine-3-carboxamide]: the Ki in assay [1] was 0.23 nM; in assay [2], 0.46 nM. Further, the IC50 in assay [3] (Homo sapiens, BEAS-2B) worked out at 24 nM.
Consider `CCn1cc(NC(=O)c2cnn3cccnc23)c(-c2cc(Oc3cc(F)cc(C4(O)CNC4)c3)ccc2OC(F)F)n1` [Example 111, N-[3-[2-(difluoromethoxy)-5-[3-fluoro-5-[3-hydroxyazetidin-3-yl)phenoxy]phenyl]-1-ethyl-pyrazol-4-yl]pyrazolo[1,5-a]pyrimidine-3-carboxamide], for which the figures for the Ki in assay [1] and in assay [2] were 0.56 nM and 0.38 nM, respectively. Further, the IC50 in assay [3] (Homo sapiens, BEAS-2B) came out at 270 nM.
For `Cn1cc(NC(=O)c2cnn3cccnc23)c(-c2cc(Oc3ccc4c(c3)CCNC4)ccc2OC(F)F)n1` [Example 63, N-[3-[2-(difluoromethoxy)-5-(1,2,3,4-tetrahydroisoquinolin-6-yloxy)phenyl]-1-methyl-pyrazol-4-yl]pyrazolo[1,5-a]pyrimidine-3-carboxamide] the same measures were 0.42 nM, 1.7 nM and 47 nM.
For `CN1CC(O)(c2cc(Oc3ccc(OC(F)F)c(-c4nn(C)cc4NC(=O)c4cnn5cccnc45)c3)cc(C(F)(F)F)c2)C1` [Example 106, N-[3-[2-(difluoromethoxy)-5-[3-(3-hydroxy-1-methyl-azetidin-3-yl)-5-(trifluoromethyl)phenoxy]phenyl]-1-methyl-pyrazol-4-yl]pyrazolo[1,5-a]pyrimidine-3-carboxamide] the same measures were 1.7 nM, 1.6 nM and 74 nM.
Take `CN1CCN(C(=O)c2ccc(Oc3ccc(OC(F)F)c(-c4nn(C)cc4NC(=O)c4cnn5cccnc45)c3)cc2)CC1` [Example 86, N-[3-[2-(difluoromethoxy)-5-[4-(4-methylpiperazine-1-carbonyl)phenoxy]phenyl]-1-methyl-pyrazol-4-yl]pyrazolo[1,5-a]pyrimidine-3-carboxamide]: the results for the Ki in assay [1] and in assay [2] were 0.56 nM and 1.1 nM, respectively. Also, the IC50 in assay [3] (Homo sapiens, BEAS-2B) was found to be 77 nM.
Take `Cn1cc(NC(=O)c2cnn3cccnc23)c(-c2cc(Oc3cnn(C4CNCC4O)c3)ccc2OC(F)F)n1` (stereo not drawn) [Example 177, N-[3-[2-(difluoromethoxy)-5-[1-(4-hydroxypyrrolidin-3-yl)pyrazol-4-yl]oxy-phenyl]-1-methyl-pyrazol-4-yl]pyrazolo[1,5-a]pyrimidine-3-carboxamide]: the Ki in assay [1] was 0.34 nM; in assay [2], 0.57 nM. The IC50 in assay [3] worked out at 330 nM.

Values taken from patent US12528812B2 (Genentech, Inc., priority 2020, dated 2026).
